{
  "source": "patent US12357598B2",
  "about": "“Treatment of neurodevelopmental disorders” (THE REGENTS OF THE UNIVERSITY OF CALIFORNIA, priority 2018, dated 2025)",
  "key": {"[1]": {"tested_on": "pregnant ddY mice", "assay": "General data (mortality, body weight, behavioral abnormality) of mothers and offspring after maternal glyphosate exposure", "format": "in vivo, mouse", "conditions": "for Behavioral abnormality: juvenile offspring", "description": "Treatment of glyphosate in drinking water into pregnant mice. Previous studies used drinking water containing 0.38% glyphosate (1% Roundup®) during pregnancy and lactation, equivalent to 50 mg/kg/day of glyphosate (1,2). This does correspond with 1/20 of the glyphosate no-observed-adverse-effect level, as described previously (3). Therefore, water or glyphosate [or 0.1, 0.25, 0.50, 0.75, 1.0% Roundup®, Nissan Chemical Corporation, Tokyo, Japan] were given to the pregnant mice from E5 to P21 (weaning). The male offspring were separated from their mothers at weaning (P21), and mice were caged each three-five in the groups in clear polycarbonate cage (22.5×33.8×14.0 cm). Mice were housed under controlled temperatures and 12 hour light/dark cycles (lights on between 07:00-19:00 h), with ad libitum food and water.\nTreatment of TPPU. TPPU was dissolved in polyethylene glycol 400 (PEG 400: Tokyo Chemical Industry Co., Ltd, Tokyo, Japan). TPPU (3 mg/kg/day) or vehicle (5 ml/kg, PEG 400) was administered orally in the pregnant mice from E5 to P21. Behavioral tests of offspring were performed during juvenile stage (P28-P35) after maternal glyphosate exposure (FIG. 1A)."}, "[2]": {"tested_on": "Ephx2 mRNA", "assay": "Quantitative RT-PCR of Ephx2 mRNA in brain regions of juvenile offspring after MIA", "format": "in vivo, mouse", "conditions": "juvenile offspring of poly(I:C)-treated mice vs saline-treated mice", "description": "Gene expression analysis by quantitative real-time PCR. At juvenile (P28) stage, mice were sacrificed, and their brains were removed for measurement of gene expression of Ephx2 mRNA. Brain regions such as PFC, striatum, CA1, CA3 and DG of the hippocampus were dissected from brain on ice using a Leica microscope S9E (Leica Microsystems, Tokyo, Japan). A quantitative RT-PCR system (Step One Plus, Thermo Fisher Scientific, Yokohama, Japan) was used to measure mRNAs. The specific mRNA transcripts were quantified by TaqManGene Expression assays (Thermo Fisher Scientific, Yokohama, Japan). Expression levels of Ephx2 (Mm01313813_m1) was measured in brain tissue. Total RNA was extracted by use of an RNeasy Mini Kit (Qiagen, Hilden, Germany). The purity of total RNA was assessed by Biophotometer plus (Eppendorf, Hamburg, Germany). The RNA samples were used in the first strand cDNA synthesis with High Capacity cDNA Reverse Transcription Kit (#4368813 Thermo Fisher Scientific, Yokohama, Japan). All samples were tested in triplicate and average values were used for quantification. The average values were normalized to Vic-labeled Actb mRNA (Cat #4352341E: pre-developed TaqMan Assay Reagents, Thermo Fisher Scientific, Yokohama, Japan)."}, "[3]": {"conditions": "0.038% glyphosate (0.1% Roundup)"}, "[4]": {"conditions": "0.095% glyphosate (0.25% Roundup)"}, "[5]": {"conditions": "0.19% glyphosate (0.50% Roundup)"}, "[6]": {"conditions": "0.285% glyphosate (0.75% Roundup)"}},
  "data": [
    {"molecule": "O=C(O)CNCP(=O)(O)O", "note": "[glyphosate]", "values": [
      {"measurement": "Alive number of offspring on P21", "setting": "[1]; [3]", "value": 33},
      {"measurement": "Maternal mortality", "setting": "[1]; [3]", "value": 0, "unit": "%"},
      {"measurement": "Number of offspring born", "setting": "[1]; [3]", "value": 33},
      {"measurement": "Offspring mortality", "setting": "[1]; [3]", "value": 0, "unit": "%"},
      {"measurement": "Alive number of mothers on P0", "setting": "[1]; 0.038% glyphosate (0.1% Roundup), 3 mothers used", "value": 3},
      {"measurement": "Alive number of offspring on P21", "setting": "[1]; [4]", "value": 24},
      {"measurement": "Maternal mortality", "setting": "[1]; [4]", "value": 0, "unit": "%"},
      {"measurement": "Number of offspring born", "setting": "[1]; [4]", "value": 30},
      {"measurement": "Offspring mortality", "setting": "[1]; [4]", "value": 20, "unit": "%"},
      {"measurement": "Alive number of mothers on P0", "setting": "[1]; 0.095% glyphosate (0.25% Roundup), 3 mothers used", "value": 3},
      {"measurement": "body weight of mothers at E17", "setting": "[1]; 0.095% glyphosate vs water exposure mothers", "value": "significantly lower"},
      {"measurement": "Alive number of offspring on P21", "setting": "[1]; [5]", "value": 2},
      {"measurement": "Maternal mortality", "setting": "[1]; [5]", "value": 20, "unit": "%"},
      {"measurement": "Number of offspring born", "setting": "[1]; [5]", "value": 43},
      {"measurement": "Offspring mortality", "setting": "[1]; [5]", "value": 95.3, "unit": "%"},
      {"measurement": "Alive number of mothers on P0", "setting": "[1]; 0.19% glyphosate (0.50% Roundup), 5 mothers used", "value": 4},
      {"measurement": "Alive number of offspring on P21", "setting": "[1]; [6]", "value": 4},
      {"measurement": "Maternal mortality", "setting": "[1]; [6]", "value": 25, "unit": "%"},
      {"measurement": "Number of offspring born", "setting": "[1]; [6]", "value": 32},
      {"measurement": "Offspring mortality", "setting": "[1]; [6]", "value": 87.5, "unit": "%"},
      {"measurement": "Alive number of mothers on P0", "setting": "[1]; 0.285% glyphosate (0.75% Roundup), 4 mothers used", "value": 3},
      {"measurement": "Alive number of offspring on P21", "setting": "[1]; 0.38% glyphosate (1% Roundup)", "value": 0},
      {"measurement": "Number of offspring born", "setting": "[1]; 0.38% glyphosate (1% Roundup)", "value": 0},
      {"measurement": "Maternal mortality", "setting": "[1]; 0.38% glyphosate (1% Roundup) in drinking water from E5", "value": 100, "unit": "%"},
      {"measurement": "Alive number of mothers on P0", "setting": "[1]; 0.38% glyphosate (1% Roundup) in drinking water from E5, 4 mothers used", "value": 0},
      {"measurement": "body weight of pregnant mice", "setting": "[1]; glyphosate 0.038%-0.285%", "value": "increased gradually"},
      {"measurement": "body weight of pregnant mice", "setting": "[1]; high concentration (0.38%) glyphosate", "value": "not increased"},
      {"measurement": "Behavioral abnormality", "setting": "[1]; 0.038% glyphosate (0.1% Roundup), locomotion, three chamber test, forced swimming test", "value": "did not show any behavioral abnormality"},
      {"measurement": "Behavioral abnormality", "setting": "[1]; [4]", "value": "observed"}
    ]},
    {"molecule": "polyriboinosinic-polyribocytidilic acid [Poly(I:C)]", "values": [
      {"measurement": "expression of sEH (or Ephx2) mRNA in the PFC", "setting": "[2]", "value": "significantly higher"}
    ]}
  ]
}
